According to patent publication US20050096282A1, “Adeno-associated virus-delivered ribozyme compositions and methods for the treatment of retinal diseases” (priority 1997, published 2005):

Key:
[1] = system: HREC; experiment: BrdU incorporation (DNA synthesis) in HRECs; assay type: cell-based, human; conditions: for Proliferation BrdU Incorporation: HREC, agonists 10 μm, with NECA: CPX 20 nM, SCH 60 nM, XAC 10 μm, * p < 0.005 vs untreated
Experimental: (§1) The subtype of adenosine receptor (A2B) that mediates the proliferative effect of adenosine on HREC was determined by the following studies. […] In contrast, neither the A2A adenosine receptor agonist CGS21680 (2-p-(2-carboxyethyl) phenethylamino-5′-N-ethylcarboxamidoadenosine) at concentrations ranging from 10 nM to 10 μM, nor the A1 adenosine receptor agonist CPA (N^6-cyclopentyladenosine) at concentrations ranging from 10 nM to 10 μM increased BrdU incorporation by HRECs. […] In contrast, neither the selective A1 adenosine receptor antagonist CPX (8-cyclopentyl-1,3-dipropylxanthine) at 20 nM, nor the selective A2A adenosine receptor antagonist SCH58261 (5-amino-7-(2-phenylethyl)-2-(2-furyl)-pyrazolo(4,3-E)-1,2,4-trizolo(1,5-c) pyrimidine) at 60 nM attenuated the stimulatory effect of NECA on BrdU incorporation by HRECs. These findings indicate that the proliferative effects of NECA are mediated by the A2B adenosine receptor in HREC in culture (Table 3).

[2] = system: HREC; experiment: HREC proliferation, cell count; assay type: cell-based, human; conditions: for Proliferation Cell Count: HREC, agonists 10 μm, with NECA: CPX 20 nM, SCH 60 nM, XAC, Enprofylline, JW V108 10 μm, * p < 0.005 vs untreated; for increase in HREC number: agonist alone, 48 hr
Experimental: as §1
The data for cell counts were consistent with those for BrdU incorporation. […] These compounds, like XAC, blocked the proliferative effects of NECA as measured by cell counts, supporting that the proliferative effects of NECA on HREC are mediated by the adenosine A2B receptor (Table 3).

[3] = system: HREC; experiment: ERK/MAPK activation in HREC, Western blot; assay type: cell-based, human; conditions: for ERK activation by agonist: agonist alone; for effect on NECA-stimulated ERK activation: HREC pretreated with antagonist or inhibitor, then NECA
Experimental: HREC were serum-starved for 24 hr and pre-treated for 20 min with 1 U/mL adenosine deaminase prior to adding NECA. Activated ERK/MAPK was visualized on Western blots by enhanced chemiluminescence using EC10 monoclonal antibody;
HRECs were serum-starved for 24 hr and pre-treated with adenosine deaminase (ADA, 1 U/mL) for 20 min, incubated with the antagonists in the presence of ADA for 10 min. NECA (1 nM-10 μM, 10 min) was used to activate ERK.
In order to determine the intracellular signaling pathways activated by NECA that regulate ERK activity, we pretreated cells for 30 min with the ERK/MPAK kinase (MEK) inhibitor PD98059 or the PKA inhibitor H-89 and stimulated with NECA for 5 min.
Cells were pre-treated with both antagonists for 10 min and stimulated with increasing concentrations of NECA.

[4] = system: HREC; experiment: VEGF protein in HREC after adenosine receptor agonists and antagonists; assay type: cell-based, human; conditions: agonists 10 μm, with NECA: CPX 20 nM, SCH 60 nM, XAC 10 μm, * p < 0.005 vs untreated
[5] = system: HREC; experiment: VEGF mRNA in HREC after adenosine receptor agonists and antagonists; assay type: cell-based, human; conditions: agonists 10 μm, with NECA: CPX 20 nM, SCH 60 nM, XAC 10 μm, * p < 0.005 vs untreated
[6] = system: HREC; experiment: cAMP content of intact HRECs; assay type: cell-based, human
Source text: The cAMP content of intact HRECs following treatment with adenosine receptor agonists and antagonists was next examined. […] The effect of selective A1 and A2A adenosine receptor antagonists on NECA-induced accumulation of cAMP was also examined.

[7] = system: HREC; experiment: HREC chemotaxis; assay type: cell-based, human
Source text: The role of the A2B receptor was further characterized by examining the effects of the A2B antagonists JW V108 and Enprofylline on HREC chemotaxis, capillary tube formation and signal transduction pathways following stimulation with the adenosine analogue NECA.

[8] = system: oxygen-induced retinal neovascularization; experiment: Oxygen-induced retinal neovascularization in the neonatal mouse; assay type: in vivo; conditions: daily IP 30 mg/Kg body weight; vs uninjected control
Source text: The potential efficacy of administering adenosine receptor antagonists to reduce retinal neovascularization brought on by ischemic insult was examined. In the neonatal mouse model of oxygen-induced retinopathy, 7-day-old mice are placed with their nursing dams in a 75% oxygen atmosphere for 5 days. Upon return to normal air, these mice develop retinal neovascularization, with peak development occurring 5 days after their return to normoxia. During this time, the animals receive by daily intaperitoneal injection a pharmacologically relevant concentration of adenosine receptor antagonist or vehicle (0.15% vol./vol. DMSO in normal saline) alone. Exemplary antagonists tested include XAC and 3-n-propylxanthine (Enprofylline), and JW V108, both at a concentration of 30 mg/Kg of body weight. […]
Individuals masked to the identity of treatment counted all cell nuclei above the inner limiting membrane for all 20 sections from each eye. […] The efficacy of treatment with a particular antagonist was then calculated as the fraction of total nuclei in antagonist or vehicle treatment over total nuclei in uninjected control. […] Whole retinas from these eyes were then flat-mounted for qualitative assessment of retinal neovascularization by fluorescence microscopy.

[9] = system: HREC; experiment: CREB phosphorylation at Ser133 in HREC, western blot; assay type: cell-based, human; conditions: HREC pretreated
Source text: Phosphorylation of cAMP response element binding protein (CREB) at Ser^133 was examined following NECA stimulation in order to determine whether activation of cAMP pathways by NECA occurred independently of ERK activation. Cells were pretreated with PD98059 or H-89 and assayed for active CREB by western blot.

SMILES | Proliferation BrdU Incorporation [1] | Proliferation Cell Count [2] | increase in HREC number [2] | ERK activation by agonist ([3]; HREC) | basal ERK activation ([3]; HREC, CGS 1-10 μM, H-89 30 min pretreatment) | VEGF Protein [4] | VEGF MRNA [5] | CAMP Content ([6]; HREC, agonists 10 μm, with NECA: CPX 20 nM, SCH 60 nM, XAC 10 μm, * p < 0.005 vs untreated) | effect on cAMP content of HREC ([6]; agonist alone, concentrations up to 100 μM) | inhibition of NECA-induced HREC chemotaxis [7] | effect on NECA-stimulated ERK activation [3] | inhibition of oxygen-induced retinal neovascularization [8] | attenuation of NECA-stimulated BrdU incorporation by HRECs ([1]; XAC 10 μM, CPX 20 nM, SCH58261 60 nM) | inhibition of increase in cell number induced by NECA ([2]; 10 μM NECA) | CREB activation (phosphorylation) following NECA stimulation [9] | inhibition of NECA-induced increase in cAMP content in HRECs ([6]; NECA 10 μM)
CCNC(=O)[C@H]1O[C@@H](n2cnc3c(N)nc(NCCc4ccc(CCC(=O)O)cc4)nc32)[C@H](O)[C@@H]1O [CGS21680, 2-p-(2-carboxyethyl) phenethylamino-5′-N-ethylcarboxamidoadenosine] | 1.0 ± 0.08 fold change vs. untreated | 1.1 ± 0.03 fold change vs. untreated | neither CGS21680 nor CPA caused an increase in cell number | did not activate ERK | reduced the basal ERK levels | 1.3 ± 0.20 fold change vs. untreated | 0.8 ± 0.37 fold change vs. untreated | 1.1 ± 1.02 fold change vs. untreated | no significant effect |  |  |  |  |  |  | 
OC[C@H]1O[C@@H](n2cnc3c(NC4CCCC4)ncnc32)[C@H](O)[C@@H]1O [CPA, N^6-cyclopentyladenosine] | 0.8 ± 0.06 fold change vs. untreated | 0.9 ± 0.04 fold change vs. untreated | neither CGS21680 nor CPA caused an increase in cell number | capable of stimulating ERK |  | 1.1 ± 0.27 fold change vs. untreated | 1.1 ± 0.22 fold change vs. untreated |  |  |  |  |  |  |  |  | 
CCCn1c(=O)[nH]c(=O)c2[nH]cnc21 [Enprofylline, 3-n-propylxanthine] |  |  |  |  |  |  |  |  |  | inhibited | completely abolished ERK activation | 70% |  |  |  | 
CCCn1c(=O)c2[nH]c(-c3ccc(OCC(=O)NCCN)cc3)nc2n(CCC)c1=O [XAC, xanthine amine congener] |  |  |  |  |  |  |  |  |  |  | decreased ERK activation by high concentrations of NECA | 54% | completely prevented | significantly inhibited | blocked CREB phosphorylation | completely blocked
